Where a name gives a salt, the structure may show the parent alone.
System: behaviors of compound-treated mice
Assay: Neuropharmacological Assay (SmartCube)
Format: in vivo
Conditions: for minimal effective dose: Mus musculus, ip, 0.25 h, dose having 50% or more total activity in SmartCube, i.p., read-out: MED (minimal effective dose); for AD: ADHD (probability that activity matches class) / AG: analgesic (probability that activity matches class) / AX: anxiolytic (probability that activity matches class) / CE: cognitive enhancer (probability that activity matches class) / DP: anti-depressant (probability that activity matches class) / MS: mood stabilizer (probability that activity matches class) / PS: anti-psychotic (probability that activity matches class) / SD: sedative hypnotic (probability that activity matches class) / UN: uncharacterized CNS activity (probability that activity matches class): i.p. 15 min before behavioral test, most efficacious dose(s) of 3 doses
Summary of the method: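 Behavioral signatures were captured automatically by video, and each drug class received a probability for the best of three i.p. doses given 15 min pre-test (vehicle: Pharmasolve/PEG/propylene glycol). Potency is given as MED, the lowest mpk dose (typically 0.3–30) reaching 50% or more total activity.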

Compound | minimal effective dose [mg/kg] | AD: ADHD (probability that activity matches class) | AG: analgesic (probability that activity matches class) | AX: anxiolytic (probability that activity matches class) | CE: cognitive enhancer (probability that activity matches class) | DP: anti-depressant (probability that activity matches class) | MS: mood stabilizer (probability that activity matches class) | PS: anti-psychotic (probability that activity matches class) | SD: sedative hypnotic (probability that activity matches class) | UN: uncharacterized CNS activity (probability that activity matches class)
Cc1cc(-c2cccc3c2CCO[C@H]3CN)cc(C)n1 [Compound 126, dihydrochloride] | 10 to 30 | + (LOQ ≤ + <5%) | + (LOQ ≤ + <5%) | + (LOQ ≤ + <5%) | + (LOQ ≤ + <5%) | + (LOQ ≤ + <5%) | + (LOQ ≤ + <5%) | + (LOQ ≤ + <5%) | + (LOQ ≤ + <5%) | + (LOQ ≤ + <5%)
NC[C@H]1OCCc2c(-c3cnco3)cccc21 (single isomer, unassigned) [Compound 99, hydrochloride salt] | ≤ 3 | + (LOQ ≤ + <5%) | ++ (5% ≤ ++ <25%) | ++ (5% ≤ ++ <25%) | ++ (5% ≤ ++ <25%) | + (LOQ ≤ + <5%) | + (LOQ ≤ + <5%) | + (LOQ ≤ + <5%) | ++ (5% ≤ ++ <25%) | +++ (25% ≤ +++ <50%)
CNC[C@H]1OCCc2c(-c3ccno3)cccc21 [Compound 95, (S)-1-(5-(Isoxazol-5-yl)isochroman-1-yl)-N-methylmethanamine] | ≤ 3 | ++++ (50% ≤ ++++) | + (LOQ ≤ + <5%) | ++ (5% ≤ ++ <25%) | + (LOQ ≤ + <5%) | ++++ (50% ≤ ++++) | + (LOQ ≤ + <5%) | + (LOQ ≤ + <5%) | ++ (5% ≤ ++ <25%) | ++ (5% ≤ ++ <25%)
NC[C@H]1OCc2c(-c3cccnc3)cccc21 [Compound 36, (S)-(4-(Pyridin-3-yl)-1,3-dihydroisobenzofuran-1-yl)methanamine hydrochloride] | ≤ 3 | ++ (5% ≤ ++ <25%) | + (LOQ ≤ + <5%) | + (LOQ ≤ + <5%) | ++ (5% ≤ ++ <25%) | ++++ (50% ≤ ++++) | + (LOQ ≤ + <5%) | + (LOQ ≤ + <5%) | + (LOQ ≤ + <5%) | + (LOQ ≤ + <5%)
CNC[C@H]1OCCc2ccc(-c3cncnc3)cc21 (single isomer, unassigned) [Compound 25, hydrochloride] | 10 to 30 | + (LOQ ≤ + <5%) | ++ (5% ≤ ++ <25%) | ++ (5% ≤ ++ <25%) | +++ (25% ≤ +++ <50%) | ++ (5% ≤ ++ <25%) | ++ (5% ≤ ++ <25%) | ++ (5% ≤ ++ <25%) | ++ (5% ≤ ++ <25%) | + (LOQ ≤ + <5%)
NC[C@H]1OCCc2ccc(-c3cccnc3)cc21 (single isomer, unassigned) [Compound 12, hydrochloride] | 10 to 30 | + (LOQ ≤ + <5%) | + (LOQ ≤ + <5%) | + (LOQ ≤ + <5%) | + (LOQ ≤ + <5%) | ++++ (50% ≤ ++++) | + (LOQ ≤ + <5%) | ++ (5% ≤ ++ <25%) | ++ (5% ≤ ++ <25%) | + (LOQ ≤ + <5%)
NC[C@@H]1OCCCc2c(-c3ccncn3)cccc21 (single isomer, unassigned) [Compound 166] | 10 to 30 | + (LOQ ≤ + <5%) | + (LOQ ≤ + <5%) | + (LOQ ≤ + <5%) | + (LOQ ≤ + <5%) | + (LOQ ≤ + <5%) | + (LOQ ≤ + <5%) | + (LOQ ≤ + <5%) | + (LOQ ≤ + <5%) | + (LOQ ≤ + <5%)
CNC[C@H]1OCCc2cc(-c3cccnn3)ccc21 (single isomer, unassigned) [Compound 32, hydrochloride] | > 30 | + (LOQ ≤ + <5%) | + (LOQ ≤ + <5%) | + (LOQ ≤ + <5%) | + (LOQ ≤ + <5%) | + (LOQ ≤ + <5%) | + (LOQ ≤ + <5%) | + (LOQ ≤ + <5%) | + (LOQ ≤ + <5%) | + (LOQ ≤ + <5%)
NC[C@H]1OCCc2c(-c3ccnnc3)cccc21 (single isomer, unassigned) [Compound 79, hydrochloride salt] | 3 to 10 | + (LOQ ≤ + <5%) | + (LOQ ≤ + <5%) | + (LOQ ≤ + <5%) | + (LOQ ≤ + <5%) | ++ (5% ≤ ++ <25%) | + (LOQ ≤ + <5%) | + (LOQ ≤ + <5%) | + (LOQ ≤ + <5%) | + (LOQ ≤ + <5%)
CNC[C@H]1OCCc2c(-c3cn[nH]c3)cccc21 [Compound 119, (S)-1-(5-(1H-pyrazol-4-yl)isochroman-1-yl)-N-methylmethanamine hydrochloride salt] | ≤ 3 | ++ (5% ≤ ++ <25%) | + (LOQ ≤ + <5%) | ++ (5% ≤ ++ <25%) | + (LOQ ≤ + <5%) | ++++ (50% ≤ ++++) | + (LOQ ≤ + <5%) | + (LOQ ≤ + <5%) | ++ (5% ≤ ++ <25%) | + (LOQ ≤ + <5%)
NC[C@H]1OCCc2c(-c3ccccc3)cccc21 (single isomer, unassigned) [Compound 131, hydrochloride salt] | ≤ 3 | + (LOQ ≤ + <5%) | + (LOQ ≤ + <5%) | ++ (5% ≤ ++ <25%) | + (LOQ ≤ + <5%) | ++++ (50% ≤ ++++) | + (LOQ ≤ + <5%) | + (LOQ ≤ + <5%) | + (LOQ ≤ + <5%) | ++ (5% ≤ ++ <25%)
NC[C@@H]1OCCc2c(-c3c[nH]cn3)cccc21 (single isomer, unassigned) [Compound 112, hydrochloride salt] | 10 to 30 | + (LOQ ≤ + <5%) | + (LOQ ≤ + <5%) | ++ (5% ≤ ++ <25%) | + (LOQ ≤ + <5%) | ++ (5% ≤ ++ <25%) | + (LOQ ≤ + <5%) | + (LOQ ≤ + <5%) | + (LOQ ≤ + <5%) | + (LOQ ≤ + <5%)
CNC[C@H]1OCCc2c(-c3ccncc3)cccc21 [Compound 18, (S)—N-Methyl(5-(pyridin-4-yl)isochroman-1-yl)methanamine dihydrochloride salt] | 10 to 30 | + (LOQ ≤ + <5%) | + (LOQ ≤ + <5%) | + (LOQ ≤ + <5%) | + (LOQ ≤ + <5%) | ++++ (50% ≤ ++++) | + (LOQ ≤ + <5%) | + (LOQ ≤ + <5%) | + (LOQ ≤ + <5%) | + (LOQ ≤ + <5%)
